Measurements from the supplement of paper PMC10307832.

Key:
Assay in all cases: relative viability (nuclei count vs DMSO), 5 days (fraction); higher = more cells survive
[1] = test system: NCI-H727
Outline: (§1)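 Relative viability divides the nuclei count in treated wells by that in vehicle wells. Lung cancer cell lines were seeded in 1536-well plates, dosed by pin tool the next day, and fixed and stained after 5 days in one step with final 0.05% Triton X-100, 1% formaldehyde and 1 ug/ml Hoechst. Dosing was a single drug or a fixed anchor-drug dose plus five library-drug doses (not always all listed) in √10 steps, and values are medians of duplicate plates imaged at 4×.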

[2] = test system: PC-14
Outline: as §1

[3] = test system: NCI-H1355
Outline: as §1

[4] = test system: NCI-H1563
Outline: as §1

[5] = test system: LCLC-103H
Outline: as §1

[6] = test system: LXF-289
Outline: as §1

[7] = test system: NCI-H2170
Outline: as §1

[8] = test system: NCI-H661
Outline: as §1

[9] = test system: NCI-H596
Outline: as §1

[10] = test system: NCI-H441
Outline: as §1

[11] = test system: NCI-H650
Outline: as §1

[12] = test system: RERF-LC-KJ
Outline: as §1

[13] = test system: NCI-H1651
Outline: as §1

[14] = test system: NCI-H1755
Outline: as §1

[15] = test system: NCI-H460
Outline: as §1

[16] = test system: SK-MES-1
Outline: as §1

[17] = test system: NCI-H2347
Outline: as §1

[18] = test system: NCI-H3122
Outline: as §1

[19] = test system: NCI-H520
Outline: as §1

[20] = test system: NCI-H1915
Outline: as §1

[21] = test system: NCI-H1792
Outline: as §1

[22] = test system: NCI-H322M
Outline: as §1

Compound: CC1(C)CCC(c2ccc(Cl)cc2)=C(CN2CCN(c3ccc(C(=O)NS(=O)(=O)c4ccc(N[C@H](CCN5CCOCC5)CSc5ccccc5)c(S(=O)(=O)C(F)(F)F)c4)cc3)CC2)C1 [Navitoclax] + Cc1nc(NC(=O)N2CCC[C@H]2C(N)=O)sc1-c1ccnc(C(C)(C)C(F)(F)F)c1 [Alpelisib] (partner 2 µM)
- relative viability ([1]; first compound 0.005 µM): 0.5
- relative viability ([1]; first compound 0.01581 µM): 0.619
- relative viability ([1]; first compound 0.1581 µM): 0.526
- relative viability ([1]; first compound 0.5 µM): 0.434
- relative viability ([2]; first compound 0.005 µM): 0.833
- relative viability ([2]; first compound 0.01581 µM): 1.02
- relative viability ([2]; first compound 0.05 µM): 0.92
- relative viability ([2]; first compound 0.1581 µM): 0.926
- relative viability ([2]; first compound 0.5 µM): 0.904
- relative viability ([3]; first compound 0.005 µM): 0.833
- relative viability ([3]; first compound 0.01581 µM): 0.934
- relative viability ([3]; first compound 0.05 µM): 0.846
- relative viability ([3]; first compound 0.1581 µM): 0.74
- relative viability ([3]; first compound 0.5 µM): 0.782
- relative viability ([4]; first compound 0.005 µM): 0.947
- relative viability ([4]; first compound 0.01581 µM): 1.03
- relative viability ([4]; first compound 0.05 µM): 0.989
- relative viability ([4]; first compound 0.1581 µM): 0.981
- relative viability ([4]; first compound 0.5 µM): 1.13
- relative viability ([5]; first compound 0.005 µM): 0.948
- relative viability ([5]; first compound 0.01581 µM): 1.13
- relative viability ([5]; first compound 0.05 µM): 0.97
- relative viability ([5]; first compound 0.1581 µM): 0.919
- relative viability ([5]; first compound 0.5 µM): 0.963
- relative viability ([6]; first compound 0.005 µM): 1.02
- relative viability ([6]; first compound 0.01581 µM): 1.03
- relative viability ([6]; first compound 0.05 µM): 0.921
- relative viability ([6]; first compound 0.1581 µM): 1.02
- relative viability ([6]; first compound 0.5 µM): 1.08
- relative viability ([7]; first compound 0.005 µM): 0.785
- relative viability ([7]; first compound 0.01581 µM): 0.872
- relative viability ([7]; first compound 0.05 µM): 0.927
- relative viability ([7]; first compound 0.1581 µM): 0.8
- relative viability ([7]; first compound 0.5 µM): 0.583
- relative viability ([8]; first compound 0.005 µM): 0.438
- relative viability ([8]; first compound 0.01581 µM): 0.468
- relative viability ([8]; first compound 0.05 µM): 0.479
- relative viability ([8]; first compound 0.1581 µM): 0.465
- relative viability ([8]; first compound 0.5 µM): 0.673
- relative viability ([9]; first compound 0.005 µM): 0.515
- relative viability ([9]; first compound 0.01581 µM): 0.481
- relative viability ([9]; first compound 0.05 µM): 0.399
- relative viability ([9]; first compound 0.1581 µM): 0.57
- relative viability ([9]; first compound 0.5 µM): 0.408
- relative viability ([10]; first compound 0.005 µM): 0.654
- relative viability ([10]; first compound 0.01581 µM): 0.901
- relative viability ([10]; first compound 0.05 µM): 0.852
- relative viability ([10]; first compound 0.1581 µM): 0.743
- relative viability ([10]; first compound 0.5 µM): 0.63
- relative viability ([11]; first compound 0.005 µM): 1.1
- relative viability ([11]; first compound 0.01581 µM): 1.15
- relative viability ([11]; first compound 0.05 µM): 1.15
- relative viability ([11]; first compound 0.1581 µM): 1.11
- relative viability ([11]; first compound 0.5 µM): 1.16
- relative viability ([12]; first compound 0.005 µM): 0.794
- relative viability ([12]; first compound 0.01581 µM): 0.839
- relative viability ([12]; first compound 0.05 µM): 0.765
- relative viability ([12]; first compound 0.1581 µM): 0.75
- relative viability ([12]; first compound 0.5 µM): 0.793
- relative viability ([13]; first compound 0.005 µM): 0.929
- relative viability ([13]; first compound 0.01581 µM): 0.899
- relative viability ([13]; first compound 0.1581 µM): 1
- relative viability ([13]; first compound 0.5 µM): 0.946
- relative viability ([14]; first compound 0.005 µM): 0.903
- relative viability ([14]; first compound 0.01581 µM): 1
- relative viability ([14]; first compound 0.05 µM): 0.906
- relative viability ([14]; first compound 0.1581 µM): 0.904
- relative viability ([14]; first compound 0.5 µM): 0.947
- relative viability ([15]; first compound 0.005 µM): 0.5
- relative viability ([15]; first compound 0.01581 µM): 0.533
- relative viability ([15]; first compound 0.05 µM): 0.639
- relative viability ([15]; first compound 0.1581 µM): 0.511
- relative viability ([15]; first compound 0.5 µM): 0.46
- relative viability ([16]; first compound 0.005 µM): 0.761
- relative viability ([16]; first compound 0.01581 µM): 1.01
- relative viability ([16]; first compound 0.05 µM): 0.922
- relative viability ([16]; first compound 0.1581 µM): 0.827
- relative viability ([16]; first compound 0.5 µM): 1.04
- relative viability ([17]; first compound 0.005 µM): 0.997
- relative viability ([17]; first compound 0.01581 µM): 1.07
- relative viability ([17]; first compound 0.05 µM): 1.08
- relative viability ([17]; first compound 0.1581 µM): 0.927
- relative viability ([17]; first compound 0.5 µM): 1.2
- relative viability ([18]; first compound 0.005 µM): 0.686
- relative viability ([18]; first compound 0.01581 µM): 0.8
- relative viability ([18]; first compound 0.05 µM): 0.726
- relative viability ([18]; first compound 0.1581 µM): 0.901
- relative viability ([18]; first compound 0.5 µM): 0.766
- relative viability ([19]; first compound 0.005 µM): 0.915
- relative viability ([19]; first compound 0.01581 µM): 0.892
- relative viability ([19]; first compound 0.05 µM): 0.981
- relative viability ([19]; first compound 0.1581 µM): 0.892
- relative viability ([19]; first compound 0.5 µM): 0.982
- relative viability ([20]; first compound 0.005 µM): 1.08
- relative viability ([20]; first compound 0.01581 µM): 1.06
- relative viability ([20]; first compound 0.05 µM): 1.01
- relative viability ([20]; first compound 0.1581 µM): 0.94
- relative viability ([20]; first compound 0.5 µM): 1
- relative viability ([21]; first compound 0.005 µM): 0.735
- relative viability ([21]; first compound 0.01581 µM): 0.878
- relative viability ([21]; first compound 0.05 µM): 0.534
- relative viability ([21]; first compound 0.1581 µM): 0.657
- relative viability ([21]; first compound 0.5 µM): 0.692
- relative viability ([22]; first compound 0.005 µM): 0.644
- relative viability ([22]; first compound 0.01581 µM): 0.772
- relative viability ([22]; first compound 0.05 µM): 0.931
- relative viability ([22]; first compound 0.1581 µM): 0.791
- relative viability ([22]; first compound 0.5 µM): 0.591
